Experiments:
[1] = test system: severe acute respiratory failure; assay: Inhaled NO in humans with severe acute respiratory failure (preliminary); type: in vivo, human; conditions: approximately 20 ppm inhaled, up to one month, five humans
Text: It is likely that inhaled NO acts by diffusing into the vascular space adjacent to the alveoli and causing relaxation of pulmonary vascular smooth muscle, thus permitting an increase in pulmonary blood flow and gas exchange. […] By localizing delivery of NO in a gaseous form directly to the lungs, the dissolved NO can immediately exert its pharmacological effect on target vascular smooth muscle, prior to inactivation of the NO by binding to hemoglobin. At the same time, the rapid binding of NO to hemoglobin ensures that any vasodilatory action of inhaled NO is solely a local or selective effect in the blood vessels of the lung, with no concomitant vasodilation downstream in the systemic circulation.

[2] = test system: heparin-protamine-induced elevated PAP and PVR; type: in vivo, sheep
Description: The heparin-protamine reaction was induced in these nine sheep by first administering heparin (200 U/kg; Elkins-Sinn, Cherry Hill, N.J.) followed five minutes later (at time zero) by protamine (2 mg/kg; Elkins-Sinn). Each of these sheep also served as a control. Six additional sheep were given an intravenous infusion of sodium nitroprusside (40 μg/kg/min body weight; Elkins-Sinn) while breathing air (data not shown).

[3] = test system: hypoxia-induced pulmonary vasoconstriction; assay: 40 ppm NO in healthy volunteers breathing 12% O2 (hypoxic, vasoconstricted lung); type: in vivo, human
Description: (§1) The effects of breathing 40 ppm NO were studied in five awake, healthy human volunteer subjects inhaling various gas mixtures for 10 min periods, with measurements starting at 6 min.

haemoglobin = conditions: Meyer 1988; cited from earlier work
lungs = assay: Light microscopy of lungs for morphological changes caused by breathing NO; type: in vivo; conditions: 80 ppm NO for 180 min, three lambs vs control lungs
Description: Lungs from three lambs which had breathed 80 ppm NO for 180 min were studied by light microscopy for evidence of morphological changes caused by breathing NO.

[4] = test system: methacholine bronchoconstriction; assay: Dose-response of intermittent NO inhalation during methacholine infusion; type: in vivo, Hartley strain guinea pigs
Description: Male Hartley strain guinea pigs (300-440g body wt) were anesthetized with α-chloralose (50 mg/kg) and urethane (500 mg/kg) (Drazen et al., J. Appl. Physiol. 48:613-618, 1980). A tracheostomy was performed, and the animals were intubated with a tubing adaptor (ID 1.65 mm) and ventilated with a small animal ventilator (Harvard Apparatus, a division of Ealing Scientific, Natick, Mass.) at 8 ml/kg and 60 breaths/min. A jugular vein was cannulated for intravenous administration of drugs. The chest was opened by bilateral excision of a portion of the ribs anteriorly so that the lungs were exposed to atmospheric pressure (Shore and Drazen, J. Appl. Physiol. 67:2504-2511, 1989). A positive end expiratory pressure of 3-4 cmH2 O was provided.
Guinea pigs were then placed inside a plethysmograph (Amdur and Mead, Am. J. Physiol. 192:363-368, 1958), that was connected to a large reservoir containing copper mesh to maintain the plethysmograph isothermal. Plethysmograph pressure was measured with a differential pressure transducer (Celesco, Canoga Park, Calif.); the opposite side of this transducer was connected to a similar reservoir. Pressure at the airway opening was measured from a side tap in the tracheal canula. Transpulmonary pressure was measured with a differential pressure transducer (Celesco) as the difference between airway opening pressure and the pressure inside the plethysmograph. Flow was obtained by electrical differentiation of the volume (plethysmograph pressure) signal. Tidal volume was measured by recording the pressure changes in the body plethysmograph. Volume, flow, and transpulmonary pressure signals were recorded on a strip chart (General Scanning, Watertown, Mass.). Pulmonary resistance and dynamic compliance were calculated by a computer program according to the method of von Neergard and Wirz (Z. Klin. Med. 105:35-50, 1927; Z. Klin. Med. 105:52-82, 1927).
The apparatus and conditions used are diagrammed in FIG. 7. The inspired gas was a precise mixture of nitrogen and oxygen blended via a Y piece tube and immediately diluted with nitric oxide (NO) to produce the correct inspired concentration in a 5 liter gas mixture bag. With volumetrically calibrated flowmeters, varying quantities of NO mixed with N2 were substituted for pure N2 to obtain the desired No concentration at an inspired oxygen concentration (FIO2) of 0.30-0.32. The total inflow gas rate was maintained at 2.5 l/min. The gas mixture was then sent via a 3 cm ID tube filled with 90 ml of soda lime to scavenge nitrogen dioxide (Stavert and Lehnert, Inhal. Toxicol. 2:53-67, 1990), then through a filter before the ventilator. Just after the ventilator inflow tube, a vacuum was adjusted to maintain the gas mixture bag nearly empty and continuously drive fresh gas into the ventilator circuit. The expiratory gas from the ventilator was scavenged with a vacuum and set up to maintain a positive end expiratory pressure of 3-4 cm H2 O. NO was obtained from Air Products and Chemicals, Inc. (Allentown, Pa.) as a mixture of 1,034 ppm NO in pure nitrogen. A chemiluminescence NO/NOx analysis (Fontijin et al., Anal. Chem. 42:575-579, 1970) was performed before and after the soda lime filled tube, and just before the inspiratory valve of the ventilator (see FIG. 7) to assess the nitrogen dioxide concentration and adjust the flowmeters to provide the different levels of NO concentration.
ii. Dose-response study of intermittent NO inhalation during methacholine infusion. After baseline measurements, the same guinea pigs were given an intravenous infusion of a potent bronchoconstrictor, methacholine, at a rate of 2.5-7.5 μg/kg/min in order to reach a medium level of bronchoconstriction (3 to 4 fold the baseline lung resistance). After a stable period, each animal was ventilated with a series of gas mixtures of 5, 10, 25, 50, 100 and 300 ppm NO for 10 minutes at constant FIO2 (0.30-0.32). […]

[5] = test system: non-constricted human lung; assay: 40 ppm NO in healthy volunteers breathing air (non-constricted lung); type: in vivo
Description: as §1

[6] = NO-containing gas mixtures (FIGS. 9-12)
[7] = air (21% O2) + 40 ppm NO, n = 5, X ± S.D.

## [N]=O [NO, nitric oxide]
[1]
  QVA /QT (right-to-left shunt): reduces both pulmonary arterial pressure and QVA /QT
  blood oxygen levels: marked increase of the patients' blood oxygen levels
  pulmonary arterial pressure: reduces both pulmonary arterial pressure and QVA /QT
[2]; 180 ppm inhaled NO vs SNP
  systemic hypotension: without the latter drug's propensity to cause marked systemic hypotension
[2]; 180 ppm inhaled NO vs SNP 40 μg/kg/min
  lowering of heparin-protamine-induced PAP: comparable to 40 μg/kg/min SNP infusion
[2]; 180 ppm inhaled NO, nine awake sheep
  prevention of elevated PAP and PVR: prevent the elevated PAP and PVR
[3]; 12% O2 + 40 ppm NO, n = 5
  CO: 8.37 ± 1.68 L/min
  CVP: 5.2 ± 2.6 mmHg
  MAP: 86.0 ± 5.7 mmHg
  PCWP: 8.5 ± 2.2 mmHg
  PVR: 0.62 mmHg · min/l
  PaCO2: 34 ± 5 mmHg
  PaO2: 45 ± 5 mmHg
  SaO2: 83.9 ± 5.7%
[3]; 12% O2 + 40 ppm NO, n = 5, p < 0.01 vs previous situation
  PAP: 13.7 ± 1.7 mmHg
[3]; 40 ppm NO, 12% v/v oxygen
  reversal of hypoxia-induced pulmonary vasoconstriction: reversed completely
haemoglobin
  binding to haemoglobin: the most rapidly binding ligand to haemoglobin so far discovered
lungs
  morphological changes of lungs: No significant differences
[4]; 5 ppm NO
  bronchodilation: produced bronchodilation
[4]; 100 or 300 ppm NO
  airway resistance: greater and more rapid reduction of airway resistance
[4]; 300 ppm NO
  reversal of methacholine bronchoconstriction: Complete reversal of methacholine bronchoconstriction
[4]; [6]
  lung compliance: increase of lung compliance
  lung resistance: consistent, rapid and profound reduction of lung resistance
[4]; after inhalation
  onset of dilation: within a few seconds
[4]; nitric oxide inhalation
  reversal of methacholine bronchoconstriction: reversed the profound bronchoconstriction
[5]; 40 ppm NO, normal (21% v/v) O2
  pulmonary or systemic vasodilatory effect: no pulmonary or systemic vasodilatory effect
[5]; air (21% O2) + 40 ppm NO, n = 5
  PVR: 0.61 mmHg · min/l
[5]; [7]
  CO: 6.40 ± 0.88 L/min
  CVP: 6.3 ± 1.7 mmHG
  MAP: 88.0 ± 3.7 mmHg
  PAP: 14.0 ± 1.8 mmHg
  PCWP: 10.1 ± 2.5 mmHg
  PaCO2: 38 ± 5 mmHg
  PaO2: 94.7 ± 16.3 mmHg
  SaO2: 96.0 ± 1.0%

Reference: patent US5873359A, “Methods and devices for treating pulmonary vasoconstriction and asthma” (The General Hospital Corporation, priority 1994, dated 1999)
